Article PMC6920136 (Redox Biology, 2019)

Key:
[1] = biological target: Duox2 (Homo sapiens, UniProt Q9NRD8); test: H2O2 synthesis assay in homogenates of HEK293T cells expressing Duox2/DuoxA2; format: biochemical
[2] = biological target: Duox1 (Homo sapiens, UniProt Q9NRD9); test: H2O2 synthesis assay in homogenates of HEK293T cells expressing Duox1/DuoxA1α; format: biochemical
Sequence of Duox1 (Q9NRD9 22-1551): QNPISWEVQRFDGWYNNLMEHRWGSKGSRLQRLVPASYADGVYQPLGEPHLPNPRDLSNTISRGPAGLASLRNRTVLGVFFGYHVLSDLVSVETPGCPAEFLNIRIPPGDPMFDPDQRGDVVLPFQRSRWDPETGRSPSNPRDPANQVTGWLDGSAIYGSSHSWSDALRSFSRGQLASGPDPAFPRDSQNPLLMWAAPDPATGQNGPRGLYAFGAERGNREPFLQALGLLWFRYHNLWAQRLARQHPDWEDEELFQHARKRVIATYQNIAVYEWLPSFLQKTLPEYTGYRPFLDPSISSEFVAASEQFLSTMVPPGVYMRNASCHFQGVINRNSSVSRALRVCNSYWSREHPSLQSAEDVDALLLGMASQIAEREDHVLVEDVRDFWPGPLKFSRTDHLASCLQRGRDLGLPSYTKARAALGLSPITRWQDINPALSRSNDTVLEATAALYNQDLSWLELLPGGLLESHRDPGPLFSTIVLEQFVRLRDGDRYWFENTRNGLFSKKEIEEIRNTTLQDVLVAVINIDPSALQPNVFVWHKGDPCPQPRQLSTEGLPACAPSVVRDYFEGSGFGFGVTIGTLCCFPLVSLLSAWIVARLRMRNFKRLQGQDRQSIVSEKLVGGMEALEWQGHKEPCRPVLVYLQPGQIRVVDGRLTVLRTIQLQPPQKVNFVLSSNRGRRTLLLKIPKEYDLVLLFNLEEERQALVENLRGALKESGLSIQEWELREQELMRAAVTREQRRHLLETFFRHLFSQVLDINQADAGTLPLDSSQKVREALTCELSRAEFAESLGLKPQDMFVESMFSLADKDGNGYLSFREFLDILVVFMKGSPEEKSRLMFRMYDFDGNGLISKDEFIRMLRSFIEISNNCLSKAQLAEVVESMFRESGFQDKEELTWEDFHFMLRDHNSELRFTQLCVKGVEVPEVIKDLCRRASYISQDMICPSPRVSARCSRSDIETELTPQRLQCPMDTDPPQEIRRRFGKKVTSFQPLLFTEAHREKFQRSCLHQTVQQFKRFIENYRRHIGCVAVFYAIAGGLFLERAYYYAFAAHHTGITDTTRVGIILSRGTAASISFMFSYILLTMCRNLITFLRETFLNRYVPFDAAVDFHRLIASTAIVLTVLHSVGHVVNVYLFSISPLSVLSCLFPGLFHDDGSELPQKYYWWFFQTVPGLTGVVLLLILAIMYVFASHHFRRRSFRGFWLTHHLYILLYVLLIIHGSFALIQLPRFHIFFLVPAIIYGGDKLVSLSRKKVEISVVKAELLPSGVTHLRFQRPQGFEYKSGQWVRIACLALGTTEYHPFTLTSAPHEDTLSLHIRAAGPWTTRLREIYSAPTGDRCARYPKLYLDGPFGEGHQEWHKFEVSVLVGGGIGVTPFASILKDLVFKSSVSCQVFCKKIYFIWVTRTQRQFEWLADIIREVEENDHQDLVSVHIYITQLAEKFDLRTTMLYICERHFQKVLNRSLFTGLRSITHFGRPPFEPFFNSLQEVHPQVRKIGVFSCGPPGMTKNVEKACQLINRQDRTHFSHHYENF
Sequence of Duox1 (Q1HG43 whole entry partner): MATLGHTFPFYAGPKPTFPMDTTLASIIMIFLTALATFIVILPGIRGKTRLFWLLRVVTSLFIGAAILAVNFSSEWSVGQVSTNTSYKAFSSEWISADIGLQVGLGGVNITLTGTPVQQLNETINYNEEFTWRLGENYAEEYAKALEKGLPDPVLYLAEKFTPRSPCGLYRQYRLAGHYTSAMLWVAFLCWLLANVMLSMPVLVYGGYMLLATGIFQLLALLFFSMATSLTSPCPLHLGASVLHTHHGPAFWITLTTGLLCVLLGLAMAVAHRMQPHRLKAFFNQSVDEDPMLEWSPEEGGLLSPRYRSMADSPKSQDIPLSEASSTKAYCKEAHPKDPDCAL

Sequence of Duox2 (Q9NRD8 26-1548): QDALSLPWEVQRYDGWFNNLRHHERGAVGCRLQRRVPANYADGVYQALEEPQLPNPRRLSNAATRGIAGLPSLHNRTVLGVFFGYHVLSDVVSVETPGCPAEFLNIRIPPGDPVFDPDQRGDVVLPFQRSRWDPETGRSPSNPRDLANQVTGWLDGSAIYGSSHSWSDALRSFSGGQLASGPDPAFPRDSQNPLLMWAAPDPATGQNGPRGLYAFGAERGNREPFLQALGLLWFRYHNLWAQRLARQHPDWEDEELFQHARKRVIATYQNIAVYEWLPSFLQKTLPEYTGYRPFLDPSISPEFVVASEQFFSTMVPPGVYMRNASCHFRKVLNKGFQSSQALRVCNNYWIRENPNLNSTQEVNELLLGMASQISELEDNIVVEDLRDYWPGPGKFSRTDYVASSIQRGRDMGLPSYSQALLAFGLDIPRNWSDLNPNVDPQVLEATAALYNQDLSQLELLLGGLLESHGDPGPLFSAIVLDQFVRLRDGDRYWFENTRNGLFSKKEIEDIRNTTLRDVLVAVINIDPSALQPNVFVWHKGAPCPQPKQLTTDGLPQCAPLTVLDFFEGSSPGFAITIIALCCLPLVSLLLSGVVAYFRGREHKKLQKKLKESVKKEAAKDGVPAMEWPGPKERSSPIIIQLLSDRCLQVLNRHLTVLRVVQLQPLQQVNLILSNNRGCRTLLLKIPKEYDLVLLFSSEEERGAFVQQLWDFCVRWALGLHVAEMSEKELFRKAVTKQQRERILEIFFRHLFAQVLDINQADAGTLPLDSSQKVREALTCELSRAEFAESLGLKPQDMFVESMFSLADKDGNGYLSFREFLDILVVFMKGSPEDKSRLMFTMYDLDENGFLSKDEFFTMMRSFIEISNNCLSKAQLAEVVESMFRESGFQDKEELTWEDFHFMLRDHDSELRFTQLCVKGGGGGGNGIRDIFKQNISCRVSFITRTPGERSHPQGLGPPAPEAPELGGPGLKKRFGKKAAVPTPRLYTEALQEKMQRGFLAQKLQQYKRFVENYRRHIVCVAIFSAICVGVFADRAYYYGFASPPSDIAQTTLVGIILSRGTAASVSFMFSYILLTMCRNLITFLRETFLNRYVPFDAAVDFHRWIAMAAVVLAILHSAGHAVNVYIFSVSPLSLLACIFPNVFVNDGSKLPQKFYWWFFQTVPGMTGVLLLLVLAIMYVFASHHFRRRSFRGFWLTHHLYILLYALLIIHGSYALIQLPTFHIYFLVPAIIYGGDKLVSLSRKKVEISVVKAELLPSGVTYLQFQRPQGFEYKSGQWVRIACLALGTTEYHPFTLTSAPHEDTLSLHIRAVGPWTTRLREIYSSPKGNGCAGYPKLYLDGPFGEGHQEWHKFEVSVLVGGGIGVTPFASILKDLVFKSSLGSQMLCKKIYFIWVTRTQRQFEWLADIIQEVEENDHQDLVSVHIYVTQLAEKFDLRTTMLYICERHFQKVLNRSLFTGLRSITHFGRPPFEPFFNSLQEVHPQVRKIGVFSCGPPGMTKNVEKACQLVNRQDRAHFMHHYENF
Sequence of Duox2 (Q1HG44 whole entry partner): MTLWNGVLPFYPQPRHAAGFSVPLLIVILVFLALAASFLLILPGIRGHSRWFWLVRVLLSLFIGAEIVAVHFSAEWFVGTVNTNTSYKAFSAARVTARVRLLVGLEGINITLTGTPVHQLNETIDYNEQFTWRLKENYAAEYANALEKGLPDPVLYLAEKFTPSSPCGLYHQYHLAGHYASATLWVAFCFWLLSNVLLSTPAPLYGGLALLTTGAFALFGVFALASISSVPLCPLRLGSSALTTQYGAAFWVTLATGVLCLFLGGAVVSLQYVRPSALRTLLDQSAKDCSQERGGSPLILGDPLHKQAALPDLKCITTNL

- IC50 [1]: 110 µM
- IC50 [2]: 140 µM
SMILES: N=C(N)Nc1nc2ccc(Cl)cc2[nH]1 [ClGBI, 5-chloro-2-guanidinobenzimidazole]
